According to patent US7173021B2, “Synthesis of temozolomide esters as potent anticancer pro-drugs for topical and transdermal applications in treatments of cancers” (Tianjin North Pharm Sci-Tech Co., Ltd., priority 2004, dated 2007):
Values after ≈ are worked out from the molar mass of the structure shown. Marks after values point to notes of the source that are not given here.

What was measured:
MV3 melanoma (human) = assay: In vivo antitumour activity, BALB/c nude mice inoculated with MV3 melanoma, topical application; conditions: 20 mg/mouse/day topical
Experimental: The temozolomide hexyl ester is chosen to conduct an in viva antitumour test. BALB/c nude mice were inoculated with MV3 melanoma (human). Once the tumour volume became 100–300 mm^3, the mice were divided into a controlled and a tested group of eight with a rational distribution of the mice according to the sizes of the tumours. The tested group was treated with 5% (W/V) free made dimethyl sulfoxide (DMSO) solution of the temozolomide hexyl ester twice a day (once on Saturday and Sunday) via repeated topical application (total dosage is 20 mg/mouse/day), while the controlled group was left to grow naturally. In a period of two-week experiment, the tumour growth in the mice was carefully recorded through body weighing and the measurement of the tumour sizes. After two weeks, the mice were scarified; tumour bulks were separated and weighed. The results of inhibition of tumour growth by the temozolomide hexyl ester are summarized in Table 5 and depicted in FIG. 10.
Preparation of 5% (W/V) DMSO solution of the temozolomide hexyl ester is carried out by weighing a actual amount of the temozolomide hexyl ester, then using DMSO to make the concentration to 50 mg/ml. After temozolomide hexyl ester is completely dissolved and a clear solution is obtained, the fresh made 5% (W/V) DMSO solution of the temozolomide hexyl ester is used in the experiments.
BALB/c nude mice were inoculated with MV3 melanoma (human). Once the tumour bulk became 100–300 mm^3, the mice were divided into a controlled and a tested group with a rational distribution of the mice according to the sizes of the tumours. Each group is consisted of 8 mice.
The tested group was treated with 5% (W/V) DMSO solution of the temozolomide hexyl ester twice a day (once on Saturday and Sunday) via repeated topical application on position of tumour and around of 2×2 cm^2 region (total dosage is 20 mg/mouse/day); while the controlled group was left free of treatment to allow the tumour to growth naturally.
The tumour volumes (TV) in the mice were measured for twice of a week, calculated using TV(mm^3)=(length×width^2)÷2, and carefully recorded and finally depicted in FIG. 10. After two weeks, the mice were scarified; tumour bulks were isolated, weighed and calculated the growth inhibition rate of MV3 melanoma (human) in BALB/c nude mice by the temozolomide hexyl ester. The antitumour activity of the temozolomide hexyl ester against MV3 melanoma (human) in BALB/c nude mice is evaluated by the relative tumour proliferation ratio (T/C %). T/C (%) is calculated by the following equation:
Where, RTV=Vt/Vo (Vo is the tumour volume (TV) at the time when the mice were divided into the tested group and the controlled group; Vt is the tumour volume (TV) were measured at each time interval FIG. 10). The criteria for effectiveness are (1) when T/C (%)>60, the compound is no effect; (2) when T/C (%)≦60 and statistically significant P<0.05, the compound is effect. In the case of the temozolomide hexyl ester, the T/C (%) in BALB/c nude mice bearing MV3 melanoma (human) is 33.7% (Table 3) and P<0.05.

HCT-8 (human colon) = assay: In vitro tumour cell growth inhibition (MTT), HCT-8; type: cell-based; conditions: Table 1 experiment, 96 h
Experimental: Temozolomide (white powder), temozolomide acid (white powder) and temozolomide-8-carboxylate hexyl (white scale crystal) were made in house. For the estimation of in vitro tumour cell growth inhibition, MV3 (human melanoma), M14 (human melanoma), B16 and B16-BL6 (mouse melanoma), SHG-44, TJ899 and TJ905 (human glioma), MCF-7 (human breast), HCT-8 (human colon), A549 (human non small lung), Bel7402 (human hepatocellulor), and BGC-823 (human stomach) were used. All tumour cells were cultured in RPMI-1640 medium supplemented with 10% fetal bovine serum (FBS) at 37° C. in a humidified 5% CO2 incubator.
After being harvested from culture flasks, a cell suspension of 1×10^4/ml was made by using 1640 RPMI medium supplemented with 10% fetal bovine serum. 100 μl (contains 1000 tumour cells) of the cell suspension was seeded per well of 96-well flat-bottom Costar culture plates at 37° C. in a humidified 5% CO2 incubator for 24 hrs before introducing drugs. Each tested compounds was made for five different concentrations and 100 μl of the each concentration was introduced into parallel three wells; control wells were added with 100 μl of plain medium alone; fluorouracil (a chemotherapeutic antitumour drug) was used as the positive control. Cells were then incubated for 96 h. Proliferative response and cell death were determined using MTT (3-(4,5-dimethylthiazolyl)-2,5-diphenyl-tetrazolium bromide) assay.
MTT assay: Following incubation of cells with the tested compounds for 96 h, 100 μl of 0.4 mg/ml MTT in RPMI 1640 was added to each well and the plate was incubated at 37° C. for 4 h. The plate was then centrifuged and followed by removal of medium. 150 μl of DMSO was then added to dissolve formazan crystal. DMSO-added plates were placed on a plate shaker for 5 min and absorbance was measured spectrophotometrically at 540 nm (with reference wavelength at 450 nm) using a Benchmark microtiter plate reader (Bio-Rad 550, Bio-Rad Laboratories, CA, U.S.A.).
The IC50 was calculated from the curve of the tested compound concentrations against the inhibition rate of the tumour cells. […]

SMILES: CCCCCCOC(=O)c1ncn2c(=O)n(C)nnc12 [temozolomide hexyl ester, Hexyl 3,4-dihydro-3-methyl-4-oxoimidazo[5,1-d]-1,2,3,5-tetrazine-8-carboxylate]
- Body weight, end (MV3 melanoma (human); after two weeks, mean ± SD): 22.9 ± 2.23 g
- Tumour weight (MV3 melanoma (human); after two weeks, mean ± SD): 0.41 ± 0.318 g
- Tumour volume, end (MV3 melanoma (human); after two weeks, mean ± SD, P < 0.05 vs control): 622 ± 545.1* mm^3
- Body weight, start (MV3 melanoma (human); start, mean ± SD): 24.0 ± 1.53 g
- Tumour volume, start (MV3 melanoma (human); start, mean ± SD): 116 ± 27 mm^3
- RTV (MV3 melanoma (human); RTV=Vt/Vo, two weeks): 3.01 ± 1.95
- Inhibition (%) of tumour growth (MV3 melanoma (human); from tumour weight, two weeks): 80.5%
- T/C (%) (MV3 melanoma (human); relative tumour proliferation ratio, two weeks): 33.7%
- IC50 (HCT-8 (human colon)): 28.6 µg/mL (≈ 103 µM)
